{
  "source": "PubChem BioAssay AID2060487",
  "about": "(Molecular Pharmacology Branch, DTP, NCI, 2025);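 further: spheroids exposed to the agents for 7 days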;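 on viability, T/C: 100% = DMSO vehicle control viability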",
  "system": "997537-175-T-J1-PDC complex spheroid viability",
  "test": "Anticancer human tumor 997537-175-T-J1-PDC patient-derived colon adenocarcinoma cell line growth inhibition [GQUAD]",
  "conditions": "for IC50: curve of first compound; for viability, T/C: stronger effect = lower value",
  "description": "DNA G-quadruplex Stabilizer Agents in Combinations in Complex Spheroids\nA high-throughput screen of multi-cell type tumor spheroids was designed to identify active combinations of DNA G-quadruplex stabilizer agents and targeted small molecules. Complex spheroids include a stromal component modeled by human endothelial cells (HUVEC) and fibroblasts modeled by human mesenchymal stem cells (MSCs). The concentration ranges selected for each drug and investigational agent were based upon clinically achievable concentrations if the clinical Cmax of the agent was known.\nCompounds. The drugs and investigational agents: pidnarulex (CX-5461; NSC782164), APTO-253 (NSC789042), BRACO-19 (NSC847499), peposertib (NSC802822), ceralasertib (NSC780249), elimusertib (NSC800525), camonsertib (NSC841442), AZD-1390 (NSC803789), olaparib (NSC753686), talazoparib (NSC767125), ART-558 (NSC835418), sotorasib (NSC818433), MRTX-1133 (NSC836407), SN-38 (NSC673596), topotecan (NSC609699), etoposide (NSC141540), doxorubicin (NSC123127), gemcitabine (NSC613327), 5-fluorouracil (NSC19893), paclitaxel (NSC125973), vemurafenib (NSC761431), panobinostat (NSC761190), R-306465 (JNJ-16241199; NSC773264), adavosertib (NSC754352), TP-3654 (NSC805149), carboplatin (NSC241240), KSQ-4279 (NSC840948), and staurosporine (NSC755774) were obtained from the National Cancer Institute (NCI) Developmental Therapeutics Program Chemical Repository (34). The FDA-approved anticancer drug set is available from the NCI Developmental Therapeutics Program. […] The stock solutions were prepared in dimethyl sulfoxide (DMSO, Sigma-Aldrich, St. Louis, MO, cat. D2650) at 800-fold the tested concentration and stored at -70 degrees C prior to their use. All drugs and investigational agents were tested over a range starting from a high concentration at or near the clinical Cmax and decreasing in half-log increments. If the clinical Cmax for an agent had not been determined, the highest concentration tested was 10 microM.\n2.3 Cell Culture. All cells were maintained in an incubator at 37 degrees C and 5% CO2 with 95% humidity. The PDC lines were cultured according to standard operating procedures established by the NCI PDMR. All PDCs were thawed and cultured in Matrigel-coated flasks prepared with a working solution of 1X Ham's F-12 nutrient mix, without supplementation (Invitrogen, cat. 11765054), 100 U/mL penicillin-streptomycin (Invitrogen, cat. 15140122), and 2.5% Matrigel (Corning Inc., cat. 354248) for the first three passages. The 857933-349-R-J2-PDC line was cultured in 6C/Colon 1B media, which includes advanced DMEM/F-12 (Thermo Fisher Scientific, cat. 12634028), 10 mM HEPES (Thermo Fisher Scientific, cat. 15630080), 1X GlutaMAX supplement (Thermo Fisher Scientific, cat. 35050061), 0.1 mg/mL primocin (InvivoGen, cat. ant-pm-2), 10% defined fetal bovine serum, heat inactivated (HyClone Laboratories Inc., cat. SH30070.03HI), 50% L-WRN conditioned media (ATCC, cat. CRL-3276), 1.25 mM N-Acetyl-L-cysteine (Sigma-Aldrich, cat. A9165), 10 mM nicotinamide (Sigma-Aldrich, cat. N0636), 1X B-27 supplement (Thermo Fisher Scientific, cat. 17504044), 1X N-2 supplement (Thermo Fisher Scientific, cat. 17502048), 10 microM Y-27632 dihydrochloride (Tocris Bioscience, cat. 1254), and 50 ng/mL human EGF recombinant protein (Thermo Fisher Scientific, cat. PHG0311). The 485176-168-R4-J1-PDC line was cultured in Panc media, which includes all 6C/Colon 1B media components plus 100 ng/mL human FGF-10 (Thermo Fisher Scientific, cat. 100-26), 500 nM SB-431542 (Selleckchem, cat. S1067), and gastrin (Tocris, cat. 3006).\n[…]",
  "data": [
    {"smiles": "O=C(c1cc(Cc2n[nH]c(=O)c3ccccc23)ccc1F)N1CCN(C(=O)C2CC2)CC1", "note": "+ Cc1cnc(CNC(=O)c2c(=O)c3ccc(N4CCCN(C)CC4)nc3n3c2sc2ccccc23)cn1", "values": [
      {"measurement": "IC50", "setting": "second compound 0.0316 µM", "result": "> 10", "unit": "µM"},
      {"measurement": "IC50", "setting": "second compound 0.1 µM", "result": "> 10", "unit": "µM"},
      {"measurement": "IC50", "setting": "second compound 0.316 µM", "result": "> 10", "unit": "µM"},
      {"measurement": "IC50", "setting": "second compound 1 µM", "result": "> 10", "unit": "µM"},
      {"measurement": "IC50", "setting": "second compound 3.16 µM", "result": "> 10", "unit": "µM"},
      {"measurement": "IC50", "setting": "second compound 10 µM", "result": "> 10", "unit": "µM"},
      {"measurement": "viability, T/C", "setting": "second compound 0.0316 µM, first compound 0.0316 µM", "result": 95.5, "unit": "%"},
      {"measurement": "viability, T/C", "setting": "second compound 0.0316 µM, first compound 0.1 µM", "result": 87.9, "unit": "%"},
      {"measurement": "viability, T/C", "setting": "second compound 0.0316 µM, first compound 0.316 µM", "result": 88.9, "unit": "%"},
      {"measurement": "viability, T/C", "setting": "second compound 0.0316 µM, first compound 1 µM", "result": 85.1, "unit": "%"},
      {"measurement": "viability, T/C", "setting": "second compound 0.0316 µM, first compound 3.16 µM", "result": 82.4, "unit": "%"},
      {"measurement": "viability, T/C", "setting": "second compound 0.0316 µM, first compound 10 µM", "result": 102, "unit": "%"},
      {"measurement": "viability, T/C", "setting": "second compound 0.1 µM, first compound 0.0316 µM", "result": 92.3, "unit": "%"},
      {"measurement": "viability, T/C", "setting": "second compound 0.1 µM, first compound 0.1 µM", "result": 92.5, "unit": "%"},
      {"measurement": "viability, T/C", "setting": "second compound 0.1 µM, first compound 0.316 µM", "result": 82.1, "unit": "%"},
      {"measurement": "viability, T/C", "setting": "second compound 0.1 µM, first compound 1 µM", "result": 72.5, "unit": "%"},
      {"measurement": "viability, T/C", "setting": "second compound 0.1 µM, first compound 3.16 µM", "result": 85.8, "unit": "%"},
      {"measurement": "viability, T/C", "setting": "second compound 0.1 µM, first compound 10 µM", "result": 68.9, "unit": "%"},
      {"measurement": "viability, T/C", "setting": "second compound 0.316 µM, first compound 0.0316 µM", "result": 82, "unit": "%"},
      {"measurement": "viability, T/C", "setting": "second compound 0.316 µM, first compound 0.1 µM", "result": 96, "unit": "%"},
      {"measurement": "viability, T/C", "setting": "second compound 0.316 µM, first compound 0.316 µM", "result": 90.1, "unit": "%"},
      {"measurement": "viability, T/C", "setting": "second compound 0.316 µM, first compound 1 µM", "result": 99.8, "unit": "%"},
      {"measurement": "viability, T/C", "setting": "second compound 0.316 µM, first compound 3.16 µM", "result": 95.5, "unit": "%"},
      {"measurement": "viability, T/C", "setting": "second compound 0.316 µM, first compound 10 µM", "result": 93.8, "unit": "%"},
      {"measurement": "viability, T/C", "setting": "second compound 1 µM, first compound 0.0316 µM", "result": 85.6, "unit": "%"},
      {"measurement": "viability, T/C", "setting": "second compound 1 µM, first compound 0.1 µM", "result": 106, "unit": "%"},
      {"measurement": "viability, T/C", "setting": "second compound 1 µM, first compound 0.316 µM", "result": 105, "unit": "%"},
      {"measurement": "viability, T/C", "setting": "second compound 1 µM, first compound 1 µM", "result": 89.5, "unit": "%"},
      {"measurement": "viability, T/C", "setting": "second compound 1 µM, first compound 3.16 µM", "result": 97, "unit": "%"},
      {"measurement": "viability, T/C", "setting": "second compound 1 µM, first compound 10 µM", "result": 108, "unit": "%"},
      {"measurement": "viability, T/C", "setting": "second compound 3.16 µM, first compound 0.0316 µM", "result": 117, "unit": "%"},
      {"measurement": "viability, T/C", "setting": "second compound 3.16 µM, first compound 0.1 µM", "result": 108, "unit": "%"},
      {"measurement": "viability, T/C", "setting": "second compound 3.16 µM, first compound 0.316 µM", "result": 95.3, "unit": "%"},
      {"measurement": "viability, T/C", "setting": "second compound 3.16 µM, first compound 1 µM", "result": 84.4, "unit": "%"},
      {"measurement": "viability, T/C", "setting": "second compound 3.16 µM, first compound 3.16 µM", "result": 99, "unit": "%"},
      {"measurement": "viability, T/C", "setting": "second compound 3.16 µM, first compound 10 µM", "result": 89.5, "unit": "%"},
      {"measurement": "viability, T/C", "setting": "second compound 10 µM, first compound 0.0316 µM", "result": 103, "unit": "%"},
      {"measurement": "viability, T/C", "setting": "second compound 10 µM, first compound 0.1 µM", "result": 95.2, "unit": "%"},
      {"measurement": "viability, T/C", "setting": "second compound 10 µM, first compound 0.316 µM", "result": 106, "unit": "%"},
      {"measurement": "viability, T/C", "setting": "second compound 10 µM, first compound 1 µM", "result": 116, "unit": "%"},
      {"measurement": "viability, T/C", "setting": "second compound 10 µM, first compound 3.16 µM", "result": 95.9, "unit": "%"},
      {"measurement": "viability, T/C", "setting": "second compound 10 µM, first compound 10 µM", "result": 101, "unit": "%"}
    ]}
  ]
}
